Measured values: BigSolDB 2.1

COC(=O)Nc1nc2ccc(S(=O)c3ccccc3)cc2[nH]1 (configuration not stated)
solubility (mole fraction)
Conditions	278.15 K	283.15 K	288.15 K	293.15 K	298.15 K	303.15 K	308.15 K	313.15 K	318.15 K	323.15 K
in 2-ethoxyethanol	0.00043	0.000518	0.000583	0.000682	0.00079	0.000908	0.00104	0.00118	0.00132	0.00144
in 2-methoxyethanol	0.000687	0.000777	0.000887	0.00104	0.00118	0.00133	0.0015	0.00173	0.00191	0.00215
in 2-propoxyethanol	0.000338	0.000402	0.000476	0.000554	0.000629	0.000727	0.000802	0.0009	0.00103	0.00117
in DMAc	0.00381	0.00471	0.00576	0.00659	0.00821	0.00976	0.0112	0.0125	0.0147	0.017
in DMF	0.00284	0.00329	0.00363	0.00408	0.00454	0.00502	0.00576	0.00632	0.00718	0.00796
in DMSO	–	–	–	0.00925	0.0109	0.012	0.0138	0.0157	0.0175	0.0194
in diglyme	0.00015	0.000174	0.000203	0.000241	0.00028	0.000321	0.000362	0.000406	0.000454	0.000502
in methanol	8.35e-05	9.72e-05	0.00012	0.000148	0.00017	0.000201	0.000242	0.000287	0.000332	0.000389
